# Read-outs that look alike come from different tables or passages of the source.
# Columns and labels:
# Assay type in all cases: cell-based, human
# 786-0 = assay: NCI-60 five-dose assay
# Protocol: (§1) A number of our most promising compounds identified through preliminary cell viability testing (23c, 23d, 23f, 23h, 23l, 23m, 23n, 23o, 24f, 24l, 25n and 26n) were selected for NCI drug screening in the 60-cell-line panel. The panel includes nine subcategories based on cancer tissue types, which include leukemia, ovarian, central nervous system, breast, lung, prostate, skin, renal and colon cancer. The compounds were initially assessed in a one-dose assay at a fixed treatment concentration of 10 µM. The compounds selected for further investigation were progressed to a five-dose assay across the concentration ranges of 0.01, 0.1, 1, 10 and 100 µM [72]. The endpoints assessed in the screening protocol were GI50, TGI and LC50 [72].
# A498 = assay: NCI-60 five-dose assay
# Protocol: as §1
# A549/ATCC = assay: NCI-60 five-dose assay
# Protocol: as §1
# ACHN = assay: NCI-60 five-dose assay
# Protocol: as §1
# BT-549 = assay: NCI-60 five-dose assay
# Protocol: as §1
# CAKI-1 = assay: NCI-60 five-dose assay
# Protocol: as §1
# COLO205 = assay: NCI-60 five-dose assay
# Protocol: as §1
# DU-145 = assay: NCI-60 five-dose assay
# Protocol: as §1
# EKVX = assay: NCI-60 five-dose assay
# Protocol: as §1
# HCT-116 = assay: NCI-60 five-dose assay
# Protocol: as §1
# HCT-15 = assay: NCI-60 five-dose assay
# Protocol: as §1
# HCT-2998 = assay: NCI-60 five-dose assay
# Protocol: as §1
# HOP-62 = assay: NCI-60 five-dose assay
# Protocol: as §1
# HOP-92 = assay: NCI-60 five-dose assay
# Protocol: as §1
# HS 578T = assay: NCI-60 five-dose assay
# Protocol: as §1
# HT29 = assay: NCI-60 five-dose assay; conditions: for GI50: HT29
# Protocol: as §1
# IGROV1 = assay: NCI-60 five-dose assay
# Protocol: as §1
# KM12 = assay: NCI-60 five-dose assay
# Protocol: as §1
# LOX IMV1 = assay: NCI-60 five-dose assay
# Protocol: as §1
# M14 = assay: NCI-60 five-dose assay
# Protocol: as §1
# MCF-7 = assay: NCI-60 five-dose assay
# Protocol: as §1
# MDA-MB-231/ATCC = assay: NCI-60 five-dose assay
# Protocol: as §1
# MDA-MB-435 = assay: NCI-60 five-dose assay
# Protocol: as §1
# MDA-MB-468 = assay: NCI-60 five-dose assay
# Protocol: as §1
# NCI-H226 = assay: NCI-60 five-dose assay
# Protocol: as §1
# NCI-H23 = assay: NCI-60 five-dose assay
# Protocol: as §1
# NCI-H332M = assay: NCI-60 five-dose assay
# Protocol: as §1
# NCI-H460 = assay: NCI-60 five-dose assay
# Protocol: as §1
# NCI-H552 = assay: NCI-60 five-dose assay
# Protocol: as §1
# NCI/ADR-RES = assay: NCI-60 five-dose assay
# Protocol: as §1
# OVCAR-3 = assay: NCI-60 five-dose assay
# Protocol: as §1
# OVCAR-4 = assay: NCI-60 five-dose assay
# Protocol: as §1
# OVCAR-5 = assay: NCI-60 five-dose assay
# Protocol: as §1
# OVCAR-8 = assay: NCI-60 five-dose assay
# Protocol: as §1
# PC-3 = assay: NCI-60 five-dose assay
# Protocol: as §1
# RXF 393 = assay: NCI-60 five-dose assay
# Protocol: as §1
# SF-268 = assay: NCI-60 five-dose assay
# Protocol: as §1
# SF539 = assay: NCI-60 five-dose assay
# Protocol: as §1
# SK-MEL-28 = assay: NCI-60 five-dose assay
# Protocol: as §1
# SK-MEL-2 = assay: NCI-60 five-dose assay
# Protocol: as §1
# SK-MEL-5 = assay: NCI-60 five-dose assay
# Protocol: as §1
# SK-OV-3 = assay: NCI-60 five-dose assay
# Protocol: as §1
# SN12C = assay: NCI-60 five-dose assay
# Protocol: as §1
# SNB-19 = assay: NCI-60 five-dose assay
# Protocol: as §1
# SW-620 = assay: NCI-60 five-dose assay
# Protocol: as §1
# TK-10 = assay: NCI-60 five-dose assay
# Protocol: as §1
# U251 = assay: NCI-60 five-dose assay
# Protocol: as §1
# UACC-257 = assay: NCI-60 five-dose assay
# Protocol: as §1
# UACC-62 = assay: NCI-60 five-dose assay
# Protocol: as §1
# breast cancer cell lines = assay: NCI-60 five-dose assay, breast cancer cell lines; conditions: range over breast cancer cell lines
# Protocol: as §1
smiles,measurement,setting,value
O=C(/C=C/C12c3ccccc3C(c3ccccc31)C1C(=O)NC(=O)C12)c1ccc(F)cc1 (racemic) [Compound 23h],GI50,786-0; Homo sapiens,2440 nM
same,GI50,A498; Homo sapiens,1160 nM
same,GI50,A549/ATCC; Homo sapiens,2370 nM
same,GI50,ACHN; Homo sapiens,1390 nM
same,GI50,BT-549; Homo sapiens,1370 nM
same,GI50,CAKI-1; Homo sapiens,1020 nM
same,GI50,"COLO205; Homo sapiens, COLO 205",1790 nM
same,GI50,DU-145; Homo sapiens,1770 nM
same,GI50,EKVX; Homo sapiens,1850 nM
same,GI50,HCT-116; Homo sapiens,537 nM
same,GI50,HCT-15; Homo sapiens,1190 nM
same,GI50,HCT-2998; Homo sapiens,1700 nM
same,GI50,HOP-62; Homo sapiens,2450 nM
same,GI50,HOP-92; Homo sapiens,1330 nM
same,GI50,HS 578T; Homo sapiens,1820 nM
same,GI50,"HT29; Homo sapiens, HT-29",1860 nM
same,GI50,"IGROV1; Homo sapiens, IGROV-1",2100 nM
same,GI50,KM12; Homo sapiens,2180 nM
same,GI50,LOX IMV1; Homo sapiens,1650 nM
same,GI50,M14; Homo sapiens,2140 nM
same,GI50,"MCF-7; Homo sapiens, MCF7",885 nM
same,GI50,MDA-MB-231/ATCC; Homo sapiens,1640 nM
same,GI50,MDA-MB-435; Homo sapiens,1930 nM
same,GI50,MDA-MB-468; Homo sapiens,1880 nM
same,GI50,NCI-H226; Homo sapiens,2040 nM
same,GI50,NCI-H23; Homo sapiens,2610 nM
same,GI50,NCI-H332M; Homo sapiens,2640 nM
same,GI50,NCI-H460; Homo sapiens,1640 nM
same,GI50,NCI-H552; Homo sapiens,1740 nM
same,GI50,NCI/ADR-RES; Homo sapiens,2160 nM
same,GI50,OVCAR-3; Homo sapiens,1440 nM
same,GI50,OVCAR-4; Homo sapiens,1960 nM
same,GI50,OVCAR-5; Homo sapiens,1600 nM
same,GI50,OVCAR-8; Homo sapiens,1430 nM
same,GI50,PC-3; Homo sapiens,1420 nM
same,GI50,RXF 393; Homo sapiens,1270 nM
same,GI50,SF-268; Homo sapiens,4560 nM
same,GI50,"SF539; Homo sapiens, SF-539",1690 nM
same,GI50,SK-MEL-28; Homo sapiens,1980 nM
same,GI50,SK-MEL-2; Homo sapiens,2480 nM
same,GI50,SK-MEL-5; Homo sapiens,1950 nM
same,GI50,SK-OV-3; Homo sapiens,5280 nM
same,GI50,SN12C; Homo sapiens,2340 nM
same,GI50,SNB-19; Homo sapiens,2680 nM
same,GI50,SW-620; Homo sapiens,2270 nM
same,GI50,TK-10; Homo sapiens,3180 nM
same,GI50,"U251; Homo sapiens, U-251",1840 nM
same,GI50,UACC-257; Homo sapiens,2130 nM
same,GI50,UACC-62; Homo sapiens,1660 nM
same,GI50,breast cancer cell lines; Homo sapiens,885 to 1880 nM
"O=C(/C=C/C12c3ccccc3C(c3ccccc31)C1C(=O)NC(=O)C12)c1ccc(Cl)cc1 (racemic) [Compound 23l, (E)-9-(3-(4-Chlorophenyl)-3-oxoprop-1-en-1-yl)-9,10-dihydro-9,10-[3,4]epipyrroloanthracene-12,14-dione]",GI50,786-0,1730 nM
same,GI50,A498,1280 nM
same,GI50,A549/ATCC,2400 nM
same,GI50,ACHN,1650 nM
same,GI50,BT-549,1340 nM
same,GI50,CAKI-1,1240 nM
same,GI50,COLO205,1910 nM
same,GI50,DU-145,1670 nM
same,GI50,EKVX,1430 nM
same,GI50,HCT-116,1230 nM
same,GI50,HCT-15,1470 nM
same,GI50,HCT-2998,1690 nM
same,GI50,HOP-62,1690 nM
same,GI50,HOP-92,1320 nM
same,GI50,HS 578T,1940 nM
same,GI50,HT29,2270 nM
same,GI50,IGROV1,1670 nM
same,GI50,KM12,2140 nM
same,GI50,LOX IMV1,1600 nM
same,GI50,M14,1650 nM
same,GI50,MCF-7,1340 nM
same,GI50,MDA-MB-231/ATCC,1880 nM
same,GI50,MDA-MB-435,1680 nM
same,GI50,MDA-MB-468,1700 nM
same,GI50,NCI-H226,1920 nM
same,GI50,NCI-H23,1780 nM
same,GI50,NCI-H332M,1420 nM
same,GI50,NCI-H460,1800 nM
same,GI50,NCI-H552,1460 nM
same,GI50,NCI/ADR-RES,1770 nM
same,GI50,OVCAR-3,1630 nM
same,GI50,OVCAR-4,1420 nM
same,GI50,OVCAR-5,1580 nM
same,GI50,OVCAR-8,1130 nM
same,GI50,PC-3,1390 nM
same,GI50,RXF 393,1200 nM
same,GI50,SF-268,1990 nM
same,GI50,SF539,1510 nM
same,GI50,SK-MEL-28,1800 nM
same,GI50,SK-MEL-2,1810 nM
same,GI50,SK-MEL-5,1700 nM
same,GI50,SK-OV-3,1850 nM
same,GI50,SN12C,1560 nM
same,GI50,SNB-19,1580 nM
same,GI50,SW-620,1890 nM
same,GI50,TK-10,1920 nM
same,GI50,U251,1520 nM
same,GI50,UACC-257,1560 nM
same,GI50,UACC-62,1400 nM
same,GI50,breast cancer cell lines,1340 to 1940 nM
"O=C(C=CC12c3ccccc3C(c3ccccc31)C1C(=O)N(c3ccc(Cl)cc3)C(=O)C12)c1ccccn1 (stereo not shown) [Compound 25n, (E)-13-(4-Chlorophenyl)-9-(3-oxo-3-(pyridin-2-yl)prop-1-en-1-yl)-9,10-dihydro-9,10-[3,4]epipyrroloanthracene-12,14-dione]",GI50,786-0; Homo sapiens,216 nM
same,GI50,A498; Homo sapiens,539 nM
same,GI50,A549/ATCC; Homo sapiens,390 nM
same,GI50,ACHN; Homo sapiens,299 nM
same,GI50,BT-549; Homo sapiens,295 nM
same,GI50,CAKI-1; Homo sapiens,1070 nM
same,GI50,"COLO205; Homo sapiens, COLO 205",1160 nM
same,GI50,DU-145; Homo sapiens,410 nM
same,GI50,EKVX; Homo sapiens,491 nM
same,GI50,HCT-116; Homo sapiens,212 nM
same,GI50,HCT-15; Homo sapiens,213 nM
same,GI50,HCT-2998; Homo sapiens,335 nM
same,GI50,HOP-62; Homo sapiens,587 nM
same,GI50,HOP-92; Homo sapiens,1190 nM
same,GI50,HS 578T; Homo sapiens,458 nM
same,GI50,"HT29; Homo sapiens, HT-29",335 nM
same,IC50,HT29; chemoresistant HT-29 human colorectal adenocarcinoma cell line,335 nM
same,GI50,"IGROV1; Homo sapiens, IGROV-1",236 nM
same,GI50,KM12; Homo sapiens,344 nM
same,GI50,LOX IMV1; Homo sapiens,194 nM
same,GI50,M14; Homo sapiens,344 nM
same,GI50,"MCF-7; Homo sapiens, MCF7",326 nM
same,GI50,MDA-MB-231/ATCC; Homo sapiens,463 nM
same,GI50,MDA-MB-435; Homo sapiens,298 nM
same,GI50,MDA-MB-468; Homo sapiens,627 nM
same,GI50,NCI-H226; Homo sapiens,293 nM
same,GI50,NCI-H23; Homo sapiens,446 nM
same,GI50,NCI-H332M; Homo sapiens,821 nM
same,GI50,NCI-H460; Homo sapiens,241 nM
same,GI50,NCI-H552; Homo sapiens,331 nM
same,GI50,NCI/ADR-RES; Homo sapiens,356 nM
same,GI50,OVCAR-3; Homo sapiens,222 nM
same,GI50,OVCAR-4; Homo sapiens,764 nM
same,GI50,OVCAR-5; Homo sapiens,568 nM
same,GI50,OVCAR-8; Homo sapiens,409 nM
same,GI50,PC-3; Homo sapiens,436 nM
same,GI50,RXF 393; Homo sapiens,222 nM
same,GI50,SF-268; Homo sapiens,699 nM
same,GI50,"SF539; Homo sapiens, SF-539",316 nM
same,GI50,SK-MEL-28; Homo sapiens,455 nM
same,GI50,SK-MEL-2; Homo sapiens,670 nM
same,GI50,SK-MEL-5; Homo sapiens,1080 nM
same,GI50,SK-OV-3; Homo sapiens,3300 nM
same,GI50,SN12C; Homo sapiens,415 nM
same,GI50,SNB-19; Homo sapiens,425 nM
same,GI50,SW-620; Homo sapiens,299 nM
same,GI50,TK-10; Homo sapiens,1460 nM
same,GI50,"U251; Homo sapiens, U-251",358 nM
same,GI50,UACC-257; Homo sapiens,496 nM
same,GI50,UACC-62; Homo sapiens,400 nM
same,GI50,breast cancer cell lines; Homo sapiens,295 to 627 nM

# Reference: PMC11359702, “Synthesis and Biochemical Evaluation of Ethanoanthracenes and Related Compounds: Antiproliferative and Pro-Apoptotic Effects in Chronic Lymphocytic Leukemia (CLL)” (Pharmaceuticals, 2024)
